By Ki is commonly meant the dissociation constant of the complex between target and ligand, obtained from inhibition or displacement. Lower therefore signals higher affinity. In general, melting point refers to the temperature of the solid-liquid transition.

Data set [1] addresses human adenosine A2A receptors (Homo sapiens, UniProt P29274). Description: Binding affinities at hA2A receptors, displacement of [3H]-CGS 21680. To be noted: in vitro binding, radioligand [3H]-CGS 21680. The text has this:
The compounds were examined in an assay measuring in vitro binding to human adenosine A2A receptors by determining the displacement of the adenosine A2A receptor selective radioligand [^3H]-CGS 21680 using standard techniques.

Data set [2] has as its system haloperidol-induced hypolocomotion. The data set can be described thus: Haloperidol-induced hypolocomotion model. The format is in vivo. To be noted: mice, 10 mg/kg intraperitoneally, haloperidol 0.2 mg/kg. The text has this:
This approach is also considered a valid method for screening drugs with potential antiparkinsonian effects. Thus, the ability of novel adenosine antagonists to block haloperidol-induced deficits in locomotor activity in mice can be used to assess both in vivo and potential antiparkinsonian efficacy.
Female TO mice (25-30 g) obtained from TUCK, UK, are used for all experiments. Animals are housed in groups of 8 [cage size−40 (width)×40 (length)×20 (height)cm] under 12 hr light/dark cycle (lights on 08:00 hr), in a temperature (20±2° C.) and humidity (55±15%) controlled environment. Animals have free access to food and water, and are allowed at least 7 days to acclimatize after delivery before experimental use.
Liquid injectable haloperidol (1 ml Serenance ampoules from Baker Norton, Harlow, Essex, each containing haloperidol BP 5 mg, batch # P424) are diluted to a final concentration of 0.02 mg/ml using saline. Test compounds are typically prepared as aqueous suspensions in 8% Tween. All compounds are administered intraperitoneally in a volume of 10 ml/kg.
1.5 hours before testing, mice are administered 0.2 mg/kg haloperidol, a dose that reduces baseline locomotor activity by at least 50%. […] Horizontal locomotor activity is determined by placing the cages within a frame containing a 3×6 array of photocells linked to a computer, which tabulates beam breaks. […]

The test system of data set [3] is catalepsy. Conditions: cited from earlier work.
For data set [4] the following is noted: cited from earlier work.

A value given as a limit tells only on which side of the number the result lay.

Sequence of human adenosine A2A receptors (P29274 whole entry): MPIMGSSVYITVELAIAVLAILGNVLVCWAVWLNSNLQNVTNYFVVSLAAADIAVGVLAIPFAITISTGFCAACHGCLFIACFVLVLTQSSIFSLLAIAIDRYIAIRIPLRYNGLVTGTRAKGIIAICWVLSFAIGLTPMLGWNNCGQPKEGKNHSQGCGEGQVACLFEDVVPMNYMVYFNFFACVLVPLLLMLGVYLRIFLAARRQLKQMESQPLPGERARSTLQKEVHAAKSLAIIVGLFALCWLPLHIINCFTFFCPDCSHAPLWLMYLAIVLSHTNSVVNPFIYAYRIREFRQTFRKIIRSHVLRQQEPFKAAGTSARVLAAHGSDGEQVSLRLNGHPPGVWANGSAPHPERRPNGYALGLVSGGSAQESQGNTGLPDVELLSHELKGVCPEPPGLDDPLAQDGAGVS

Take `OC(c1ccccc1Br)c1cc(C(F)(F)F)nc2c(C(F)(F)F)cccc12` (stereo not drawn) [Example 21, 2,8-Bis(trifluoromethyl)-α-(2-bromophenyl)-4-quinolinemethanol]: the melting point was in the range of 147 to 149 °C. This molecule showed a Ki in data set [1] of 0.743 µM.

As for `OC(c1ccccc1F)c1cc(C(F)(F)F)nc2c(C(F)(F)F)cccc12` (stereo not drawn) [Example 22, 2,8-Bis(trifluoromethyl)-α-(2-fluorophenyl)-4-quinolinemethanol], the melting point was in the range of 119.5 to 120.8 °C. For the same molecule, the inhibitory constant (Ki) in data set [1] worked out at 1.92 µM.

In turn, `COc1ccccc1C(O)c1cc(C(F)(F)F)nc2c(C(F)(F)F)cccc12` (centres unmarked) [Example 23] had a melting point of 132 to 134 °C. Further, the Ki in data set [1] came to 0.701 µM.

`Cc1cccc2c(C(O)c3ccsc3)cc(C(F)(F)F)nc12` (stereo not drawn) [Example 28, 8-Methyl-α-(3-thienyl)-2-trifluoromethyl-4-quinolinemethanol] showed a melting point of 113 to 114 °C. In data set [1], this molecule registered a Ki of 0.574 µM.

For the molecule `CCc1cccc2c(C(O)c3ccccc3)cc(C(F)(F)F)nc12` (stereo not drawn) [Example 31, 8-Ethyl-α-phenyl-2-trifluoromethy-4-quinolinemethanol], the melting point was 102 to 104 °C. In data set [1], this molecule showed a Ki of 1.77 µM.

Regarding `Oc1cc(C(O)C2CCCCC2)c2ccccc2n1` (stereo not drawn) [Example 86, α-Cyclohexyl-2-hydroxy-4-quinolinemethanol], the melting point is > 250 °C. The “reversal of haloperidol-induced hypolocomotion” value in data set [2] is listed as “significantly reversed”.

Take `CCCn1c(=O)c2c(nc(/C=C/c3ccc(OC)c(OC)c3)n2C)n(CCC)c1=O` [KF 17837, (E)-8-(3,4-dimethoxystyryl)-1,3-dipropyl-7-methylxanthine]: in data set [3] (in vivo), the “anticataleptic effects of a subthreshold dose of L-DOPA plus benserazide” value is recorded as “potentiated”; the “catalepsy induced by haloperidol and reserpine” value is reported as “reduced”. Moreover, the “cataleptic responses induced by intracerebroventricular CGS 21680” value in data set [3] (oral administration) is reported as “significantly ameliorated”.

Take `Cn1c(=O)c2[nH]cnc2n(C)c1=O` [theophylline, 1,3-dimethylxanthine]: the “mean objective disability scores” value in data set [4] (15 Parkinsonian patients, up to 12 weeks, 150 mg/day) is given as “significant improvements”. In data set [4] (slow release oral preparation 150 mg/day, after one week, Parkinsonian patients), the serum theophylline levels is recorded as 4.44 mg/L.
